# Legend:
# [1] = system: leukocyte adherence to the vascular endothelium; assay: Aspirin-induced leukocyte adherence, intravital microscopy of mesenteric venules; assay type: in vivo, rat; conditions: FIG. 5
# Protocol: Leukocyte adherence was studied using intravital microscopy, as described in detail previously (Wallace et al., (1993) Am. J. Physiol. 265: 993-998, incorporated hereto by reference). Rats were anesthetized with pentobarbital sodium (60 mg/kg i.p.) and cautery incisions were made along the abdominal region. A tracheotomy was performed to facilitate breathing. The rats were placed in a supine position, and a segment of the mesentery was exteriorized through the abdominal incision. The mesentery was carefully placed over an optically clear viewing pedestal that allowed for trans-illumination of a 2-cm^2 segment of tissue. All exposed tissue was covered with saline-soaked gauze to minimize dehydration. […] A video camera mounted on the microscope (Panasonic™ digital 5000) projected the image onto a monitor, and the images were recorded for playback analysis using a videocassette recorder. Images of the mesenteric microcirculation were recorded 5 minutes prior to aspirin administration (baseline), at the time of aspirin administration (time 0-5) and every 15 minutes for 60 minutes. Leukocyte adherence was blindly quantified from videotaped images of the vessels made over 5-min periods as the number of leukocytes that remained stationary along the vessel wall for 30 s or more (expressed per 100 μm venule length). […]
# TNBS-induced colitis = TNBS-induced colitis in mice (disease activity score, MPO activity); assay type: in vivo; conditions: oral 100 mg/kg every 12 h for 5 days
# Protocol: A standard experimental animal model of colitis induced by intracolonic administration of 2,4,6-trinitrobenzene sulfonic acid (TNBS) to mice is used in the following example. A detailed description of this model has been published (Santucci et al. (2003) Gastroenterology 124:1381-94) and is incorporated herein by reference. Briefly, 6-8 week old Balb/c mice were given TNBS intracolonically at a dose of 1.5 mg in 0.1 mL of 30% ethanol. The mice were randomized to the various treatment groups (n=6 per group). Beginning one hour later and continuing every 12 h for 5 days, the mice were treated orally with vehicle (1% carboxymethylcellulose (CMC)), 5-ASA (mesalamine) alone (100 mg/kg), 4-hydroxythiobenzamide (referred to in the Figures as 4-HTB) (100 mg/kg), 5-amino-2-(4-thiocarbamoyl-phenoxycarbonyloxy)-benzoic acid (100 mg/kg) (referred to hereinafter as Compound XXVII) and equimolar doses of mesalamine (50 mg/kg) and (4-HTB) (50 mg/kg). *p<0.05 versus the vehicle-treated group. Each group consisted of at least 5 rats.
# The mice were evaluated (blindly) on the final day of the study for the presence of diarrhea and fecal occult blood, and their body weights were measured. […] After sacrifice, a sample of the colon was excised for measurement of myeloperoxidase (MPO) activity, as a marker of granulocyte infiltration. All results were compared to those obtained with healthy mice as well.
# gastric ulcers = assay: Healing of acetic acid-induced gastric ulcers; assay type: in vivo, rat; conditions: oral twice-daily for 4 days; 30 μmol/kg (naproxen, Compound XX 60 μmol/kg); FIG. 17
# Protocol: Gastric ulcers were induced via serosal application of acetic acid, as described by Elliott et al., A nitric oxide-releasing nonsteroidal anti-inflammatory drug accelerates gastric ulcer healing in rats. […] After 4 days of such treatment, the rats were euthanized and the stomach was excised and photographed. The area (in mm^2) of the ulcer was determined planimetrically by an individual unaware of the treatments given to the rats.
# COX-1 and/or COX-2 = assay: Gastric prostaglandin E2 synthesis; assay type: in vivo, rat; conditions: oral, 3 h; diclofenac 20 mg/kg or equimolar doses; FIG. 9
# Protocol: Briefly, the tissue samples were minced with scissors for 30 min, then placed in 1 mL of sodium phosphate buffer (pH 7.4) and placed in a shaking water bath (37° C.) for 20 min.
# COX-1 = target: T1, COX-1 (Rattus norvegicus, UniProt Q63921); assay: Whole blood thromboxane B2 synthesis in treated rats; assay type: in vivo; conditions: same rats as FIG. 12/13
# T1 construct: whole blood thromboxane synthesis, which occurs via COX-1; from tissue; host or cells: rat whole blood, ex vivo after oral dosing
# T1 sequence (Q63921 27-602): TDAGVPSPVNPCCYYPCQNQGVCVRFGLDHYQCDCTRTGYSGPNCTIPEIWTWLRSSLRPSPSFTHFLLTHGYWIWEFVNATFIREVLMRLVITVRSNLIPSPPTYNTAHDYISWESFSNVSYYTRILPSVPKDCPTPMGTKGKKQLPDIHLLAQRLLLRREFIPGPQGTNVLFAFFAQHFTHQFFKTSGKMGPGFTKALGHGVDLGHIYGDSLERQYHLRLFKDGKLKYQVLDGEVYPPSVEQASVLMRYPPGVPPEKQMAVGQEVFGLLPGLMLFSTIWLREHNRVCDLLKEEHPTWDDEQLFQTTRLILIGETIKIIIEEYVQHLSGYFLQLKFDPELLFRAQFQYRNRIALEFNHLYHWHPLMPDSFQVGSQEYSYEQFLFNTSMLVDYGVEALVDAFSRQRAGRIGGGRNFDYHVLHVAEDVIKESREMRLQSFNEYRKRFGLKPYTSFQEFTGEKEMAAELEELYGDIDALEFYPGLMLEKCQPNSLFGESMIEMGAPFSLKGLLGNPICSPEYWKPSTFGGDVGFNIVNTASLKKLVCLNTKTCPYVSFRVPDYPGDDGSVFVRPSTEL
# Protocol: Inhibition of COX-1 was also measured using the same rats. […] The samples were then centrifuged for 3 min at 9,000 g and the supernatant was frozen at −80° C. for subsequent measurement of thromboxane B2 concentrations using a specific ELISA.
# Inhibition of COX-1 was also measured using the same rats, using the same method as described for FIG. 11.
Compound,leukocyte adherence at 60-65 minutes ([1]; 100 mg/kg intragastrically 60 min prior to aspirin),"leukocyte adherence at 60-65 minutes after glibenclamide pretreatment ([1]; glibenclamide 10 mg/kg i.p. 30 min prior, aspirin)",Disease Activity Score (TNBS-induced colitis; FIG. 1),"myeloperoxidase (MPO) activity (granulocyte infiltration) (TNBS-induced colitis; colon sample, FIG. 2)",gastric ulcer healing (ulcer surface area) (gastric ulcers),gastric PGE2 synthesis (COX-1 and/or COX-2),COX-1 activity (whole blood thromboxane synthesis) (COX-1)
5-amino-2-(4-thiocarbamoyl-phenoxycarbonyloxy)-benzoic acid [Compound XXVII],suppress aspirin-induced leukocyte adherence,reverse this inhibitor effect on leukocyte adherence,almost three times as effective,significantly reduced inflammation,–,–,–
NC(=S)c1ccc(O)cc1 [4-hydroxythiobenzamide],–,–,–,–,did not significantly affect the healing of gastric ulcers,did not reduce gastric PGE2 synthesis,did not significantly affect COX-1 activity

# Reference: patent publication US8314140B2, “4-hydroxythiobenzamide derivatives of drugs” (Antibe Therapeutics Inc., priority 2006, dated 2012)
